According to patent US9850283B2, “Macrocyclic inhibitors of the PD-1/PD-L1 and CD80(B7-1)/PD-L1 protein/protein interactions” (BRISTOL-MYERS SQUIBB COMPANY, priority 2013, dated 2017):
pIC50: −log10 of the molar value. Like-named read-outs stand apart in the source and are kept apart here. Starred links: 1 amine or outer side, 2 acyl side, 3 side chain; linkers in the order of their positions; H or OH if unused. Positions of bridges follow the written chain, without caps; N, C: chain ends. Non-standard residues stand in square brackets, D forms with d. Residues, ends and D or L forms follow the SMILES beside them. X10 = O=C([C@H](Cc1ccc(F)c(Cl)c1)N[*:1])[*:2]; Phe(4-F) = N[C@@H](Cc1ccc(F)cc1)C(=O)O; 1Nal = N[C@@H](Cc1cccc2ccccc12)C(=O)O; Phe(2-F) = N[C@@H](Cc1ccccc1F)C(=O)O; NMeF = CN[C@@H](Cc1ccccc1)C(=O)O; NMeNle = CCCC[C@H](NC)C(=O)O; dPip = O=C(O)[C@H]1CCCCN1; Sar = CNCC(=O)O

Legend:
Human PD-L1/PD-1 = target: T1, Human PD-L1/PD-1 (Homo sapiens, UniProt Q9NZQ7); assay: HTRF PD-1-Ig/PD-L1-His binding assay (human PD-L1)
T1 construct: made in house; host or cells: HEK293T
Outline: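 Soluble Fc-fused PD-1 and His-tagged PD-L1 (truncated before the transmembrane region) were combined in dPBS with 0.1% (w/v) BSA and 0.05% (v/v) Tween-20. Binding was read by HTRF using europium cryptate anti-Ig antibody (1 nM final) and APC anti-His antibody (20 nM final).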

[1] = target: T2, LK35.2-hPD-L1 cells / PE-labeled PD-1-Ig (Homo sapiens, UniProt Q9NZQ7); assay: LK35.2-hPD-L1 cell binding high-content screening assay; type: cell-based; settings: cell binding assay, cell line not given
T2 construct: expressed in transfected cells; host or cells: LK35.2 mouse B cell line
Outline: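 Fluorescent PD-1-Ig binding to PD-L1-expressing LK35.2 cells, imaged after washing. Conditions: 1 nM PE-PD-1-Ig, 37 °C, 1 h, RPMI with 10% fetal calf serum.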

[2] = cluster symbol, read-out: HTRF IC50 cluster
[3] = cluster symbol, read-out: CBA IC50 cluster

T1 sequence (Q9NZQ7 with tags, fused parts or gaps): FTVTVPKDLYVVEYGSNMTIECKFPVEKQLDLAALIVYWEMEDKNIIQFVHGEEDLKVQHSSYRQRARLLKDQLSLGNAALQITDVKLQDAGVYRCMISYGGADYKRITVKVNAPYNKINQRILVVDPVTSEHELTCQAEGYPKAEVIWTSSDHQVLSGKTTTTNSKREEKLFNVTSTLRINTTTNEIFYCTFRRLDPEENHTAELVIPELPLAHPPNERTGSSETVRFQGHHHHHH
T2 sequence (Q9NZQ7 19-290): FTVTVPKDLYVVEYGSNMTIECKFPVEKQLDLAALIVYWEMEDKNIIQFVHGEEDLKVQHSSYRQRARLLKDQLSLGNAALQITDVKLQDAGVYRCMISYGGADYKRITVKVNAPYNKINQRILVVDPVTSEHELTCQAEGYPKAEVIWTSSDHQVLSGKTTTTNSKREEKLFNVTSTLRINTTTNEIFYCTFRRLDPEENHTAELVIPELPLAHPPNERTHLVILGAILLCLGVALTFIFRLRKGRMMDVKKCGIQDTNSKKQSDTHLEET

Row | SMILES | pIC50 (Human PD-L1/PD-1; [2]) | pIC50 [1, 3] | further results
1 | CCCC[C@H]1C(=O)N(C)CC(=O)N[C@@H](CC(=O)O)C(=O)N[C@@H](C(C)C)C(=O)N(C)[C@@H](Cc2ccccc2)C(=O)N[C@@H](CCC(=O)O)C(=O)N(C)CC(=O)N[C@@H](Cc2c[nH]c3ccccc23)C(=O)N[C@@H](Cc2ccc(O)cc2)C(=O)N[C@@H](CCCNC(=N)N)C(=O)N[C@H](C(=O)NCC(N)=O)CSCC(=O)N[C@@H](Cc2ccccc2)C(=O)N(C)[C@@H](Cc2ccccc2)C(=O)N1C [Example 3559] (HELM PEPTIDE1{[O=C(C[*:3])[*:2]].F.[meF].[CCCC[C@@H](C(=O)[*:2])N(C)[*:1]].[Sar].D.V.[meF].E.[Sar].W.Y.R.C.G.[am]}$PEPTIDE1,PEPTIDE1,1:R3-14:R3$$$V2.0) |  |  | pIC50 (Human PD-L1/PD-1; HTRF IC50 value, value given instead of cluster): 7.92; pIC50 ([1]; CBA IC50 value, value given instead of cluster): 7.32
2 | CCCC[C@H]1C(=O)N2CCC[C@@H]2C(=O)N[C@@H](CC(=O)O)C(=O)N[C@@H](C(C)C)C(=O)N(C)[C@@H](Cc2ccccc2)C(=O)N[C@@H](Cc2ccc(O)cc2)C(=O)N(C)CC(=O)N[C@@H](Cc2c[nH]c3ccccc23)C(=O)N[C@@H](Cc2ccc(O)cc2)C(=O)N[C@@H](CC(C)C)C(=O)N[C@H](C(=O)NCC(N)=O)CSCC(=O)N[C@@H](Cc2ccccc2)C(=O)N(C)[C@@H](Cc2ccccc2)C(=O)N1C [Example 3560] (HELM PEPTIDE1{[O=C(C[*:3])[*:2]].F.[meF].[CCCC[C@@H](C(=O)[*:2])N(C)[*:1]].[dP].D.V.[meF].Y.[Sar].W.Y.L.C.G.[am]}$PEPTIDE1,PEPTIDE1,1:R3-14:R3$$$V2.0) | 7.52 to 8.17 | 8.33 to 9.80 | 
3 | CCCC[C@H]1C(=O)N(C)CC(=O)N[C@@H](CC(=O)O)C(=O)N[C@@H](C(C)C)C(=O)N(C)[C@@H](Cc2ccccc2)C(=O)N[C@@H](Cc2ccc(O)cc2)C(=O)N(C)CC(=O)N[C@@H](Cc2c[nH]c3ccccc23)C(=O)N[C@@H](Cc2ccc(O)cc2)C(=O)N2CCC[C@H]2C(=O)N[C@H](C(=O)NCC(N)=O)CSCC(=O)N[C@@H](Cc2ccccc2)C(=O)N(C)[C@@H](Cc2ccccc2)C(=O)N1C [Example 3561] (HELM PEPTIDE1{[O=C(C[*:3])[*:2]].F.[meF].[CCCC[C@@H](C(=O)[*:2])N(C)[*:1]].[Sar].D.V.[meF].Y.[Sar].W.Y.P.C.G.[am]}$PEPTIDE1,PEPTIDE1,1:R3-14:R3$$$V2.0) | < 7.52 | < 7.13 | 
4 | CCCC[C@H]1C(=O)N(C)CC(=O)N[C@@H](CC(=O)O)C(=O)N[C@@H](C(C)C)C(=O)N(C)[C@@H](Cc2ccccc2)C(=O)N[C@@H](Cc2ccc(O)cc2)C(=O)N2CCC[C@@H]2C(=O)N[C@@H](Cc2c[nH]c3ccccc23)C(=O)N[C@@H](Cc2ccc(O)cc2)C(=O)N[C@@H](CC(C)C)C(=O)N[C@H](C(=O)NCC(N)=O)CSCC(=O)N[C@@H](Cc2ccccc2)C(=O)N(C)[C@@H](Cc2ccccc2)C(=O)N1C [Example 3562] (HELM PEPTIDE1{[O=C(C[*:3])[*:2]].F.[meF].[CCCC[C@@H](C(=O)[*:2])N(C)[*:1]].[Sar].D.V.[meF].Y.[dP].W.Y.L.C.G.[am]}$PEPTIDE1,PEPTIDE1,1:R3-14:R3$$$V2.0) | 7.52 to 8.17 | 8.33 to 9.80 | 
5 | CCCC[C@H]1C(=O)N(C)CC(=O)N[C@@H](CC(=O)O)C(=O)N[C@@H](C(C)C)C(=O)N(C)[C@@H](Cc2ccccc2)C(=O)N[C@@H](Cc2ccc(O)cc2)C(=O)N(C)CC(=O)N[C@H](Cc2c[nH]c3ccccc23)C(=O)N[C@@H](Cc2ccc(O)cc2)C(=O)N[C@@H](CC(C)C)C(=O)N[C@H](C(=O)NCC(N)=O)CSCC(=O)N[C@@H](Cc2ccccc2)C(=O)N(C)[C@@H](Cc2ccccc2)C(=O)N1C [Example 3563] (HELM PEPTIDE1{[O=C(C[*:3])[*:2]].F.[meF].[CCCC[C@@H](C(=O)[*:2])N(C)[*:1]].[Sar].D.V.[meF].Y.[Sar].[dW].Y.L.C.G.[am]}$PEPTIDE1,PEPTIDE1,1:R3-14:R3$$$V2.0) | < 7.52 | < 7.13 | 
6 | CCCC[C@H]1C(=O)N(C)CC(=O)N[C@@H](CC(=O)O)C(=O)N[C@@H](C(C)C)C(=O)N(C)[C@@H](Cc2ccccc2)C(=O)N[C@H](Cc2ccc(O)cc2)C(=O)N(C)CC(=O)N[C@@H](Cc2c[nH]c3ccccc23)C(=O)N[C@H](Cc2ccc(O)cc2)C(=O)N[C@@H](CC(C)C)C(=O)N[C@H](C(=O)NCC(N)=O)CSCC(=O)N[C@@H](Cc2ccccc2)C(=O)N(C)[C@@H](Cc2ccccc2)C(=O)N1C [Example 3564] (HELM PEPTIDE1{[O=C(C[*:3])[*:2]].F.[meF].[CCCC[C@@H](C(=O)[*:2])N(C)[*:1]].[Sar].D.V.[meF].[dY].[Sar].W.[dY].L.C.G.[am]}$PEPTIDE1,PEPTIDE1,1:R3-14:R3$$$V2.0) |  |  | pIC50 (Human PD-L1/PD-1; value given instead of cluster, read-out: HTRF IC50 value): < 5.00; pIC50 ([1]; value given instead of cluster, read-out: CBA IC50 value): < 5.00
7 | CCCC[C@H]1C(=O)N(C)CC(=O)N[C@@H](CC(=O)O)C(=O)N[C@@H](C(C)C)C(=O)N(C)[C@@H](Cc2ccccc2)C(=O)N[C@@H](Cc2ccc(O)cc2)C(=O)N(C)CC(=O)N[C@@H](Cc2c[nH]c3ccccc23)C(=O)N[C@@H](Cc2ccc(O)cc2)C(=O)N2CCC[C@@H]2C(=O)N[C@H](C(=O)NCC(N)=O)CSCC(=O)N[C@@H](Cc2ccccc2)C(=O)N(C)[C@@H](Cc2ccccc2)C(=O)N1C [Example 3565] (HELM PEPTIDE1{[O=C(C[*:3])[*:2]].F.[meF].[CCCC[C@@H](C(=O)[*:2])N(C)[*:1]].[Sar].D.V.[meF].Y.[Sar].W.Y.[dP].C.G.[am]}$PEPTIDE1,PEPTIDE1,1:R3-14:R3$$$V2.0) | < 7.52 | < 7.13 | 
8 | CCCC[C@H]1C(=O)N(C)CC(=O)N[C@@H](CC(=O)O)C(=O)N[C@@H](C(C)C)C(=O)N(C)[C@@H](Cc2ccccc2)C(=O)N[C@@H](Cc2ccc(O)cc2)C(=O)N(C)CC(=O)N[C@@H](Cc2c[nH]c3ccccc23)C(=O)N(C)[C@@H](Cc2ccc(O)cc2)C(=O)N[C@@H](CC(C)C)C(=O)N[C@H](C(=O)NCC(N)=O)CSCC(=O)N[C@@H](Cc2ccccc2)C(=O)N(C)[C@@H](Cc2ccccc2)C(=O)N1C [Example 3566] (HELM PEPTIDE1{[O=C(C[*:3])[*:2]].F.[meF].[CCCC[C@@H](C(=O)[*:2])N(C)[*:1]].[Sar].D.V.[meF].Y.[Sar].W.[meY].L.C.G.[am]}$PEPTIDE1,PEPTIDE1,1:R3-14:R3$$$V2.0) | < 7.52 | < 7.13 | 
9 | CCCC[C@H]1C(=O)N(C)CC(=O)N[C@@H](CC(=O)O)C(=O)N[C@@H](C(C)C)C(=O)N(C)[C@@H](Cc2ccccc2)C(=O)N[C@@H](Cc2ccc(O)cc2)C(=O)N(C)CC(=O)N[C@@H](Cc2c[nH]c3ccccc23)C(=O)N[C@@H](Cc2ccc(O)cc2)C(=O)N[C@@H](CC(C)C)C(=O)N[C@H](C(=O)NCC(N)=O)CSCC(=O)N[C@@H](Cc2ccc(F)c(Cl)c2)C(=O)N(C)[C@@H](Cc2ccccc2)C(=O)N1C [Example 3567] ({CH2CO}-[X10][NMeF][NMeNle][Sar]DV[NMeF]Y[Sar]WYLCG-NH2; thioether N-13) | 8.17 to 9.41 | 8.33 to 9.80 | 
10 | CCCC[C@H]1C(=O)N(C)CC(=O)N[C@@H](CC(=O)O)C(=O)N[C@@H](C(C)C)C(=O)N(C)[C@@H](Cc2ccccc2)C(=O)N[C@@H](Cc2ccc(O)cc2)C(=O)N(C)CC(=O)N[C@@H](Cc2c[nH]c3ccccc23)C(=O)N[C@@H](Cc2ccc(O)cc2)C(=O)N[C@@H](CC(C)C)C(=O)N[C@H](C(=O)NCC(N)=O)CSCC(=O)N[C@@H](Cc2ccccc2F)C(=O)N(C)[C@@H](Cc2ccccc2)C(=O)N1C [Example 3568] ({CH2CO}-[Phe(2-F)][NMeF][NMeNle][Sar]DV[NMeF]Y[Sar]WYLCG-NH2; thioether N-13) | < 7.52 | 7.14 to 8.32 | 
11 | CCCC[C@H]1C(=O)N(C)CC(=O)N[C@@H](CC(=O)O)C(=O)N[C@@H](C(C)C)C(=O)N(C)[C@@H](Cc2ccccc2)C(=O)N[C@@H](Cc2ccc(O)cc2)C(=O)N(C)CC(=O)N[C@@H](Cc2c[nH]c3ccccc23)C(=O)N[C@@H](Cc2ccc(O)cc2)C(=O)N[C@@H](CC(C)C)C(=O)N[C@H](C(=O)NCC(N)=O)CSCC(=O)N[C@@H](Cc2ccccc2)C(=O)N[C@@H](Cc2cccc3ccccc23)C(=O)N1C [Example 3569] ({CH2CO}-F[1Nal][NMeNle][Sar]DV[NMeF]Y[Sar]WYLCG-NH2; thioether N-13) | < 7.52 | < 7.13 | 
12 | CCCC[C@H]1C(=O)N(C)CC(=O)N[C@@H](CC(=O)O)C(=O)N[C@@H](C(C)C)C(=O)N[C@@H](Cc2ccc(F)cc2)C(=O)N[C@@H](Cc2ccc(O)cc2)C(=O)N(C)CC(=O)N[C@@H](Cc2c[nH]c3ccccc23)C(=O)N[C@@H](Cc2ccc(O)cc2)C(=O)N[C@@H](CC(C)C)C(=O)N[C@H](C(=O)NCC(N)=O)CSCC(=O)N[C@@H](Cc2ccccc2)C(=O)N(C)[C@@H](Cc2ccccc2)C(=O)N1C [Example 3570] ({CH2CO}-F[NMeF][NMeNle][Sar]DV[Phe(4-F)]Y[Sar]WYLCG-NH2; thioether N-13) | < 7.52 | < 7.13 | 
13 | CCCC[C@H]1C(=O)N(C)CC(=O)N[C@@H](CC(=O)O)C(=O)N[C@@H](C(C)C)C(=O)N(C)[C@@H](Cc2ccccc2)C(=O)N[C@@H](Cc2ccc(O)cc2)C(=O)N2CCCC[C@@H]2C(=O)N[C@@H](Cc2c[nH]c3ccccc23)C(=O)N[C@@H](Cc2ccc(O)cc2)C(=O)N[C@@H](CC(C)C)C(=O)N[C@H](C(=O)NCC(N)=O)CSCC(=O)N[C@@H](Cc2ccccc2)C(=O)N(C)[C@@H](Cc2ccccc2)C(=O)N1C [Example 3572] ({CH2CO}-F[NMeF][NMeNle][Sar]DV[NMeF]Y[dPip]WYLCG-NH2; thioether N-13) | 8.17 to 9.41 | 8.33 to 9.80 | 
